Tests used:
[1] = system: HIF transcriptional activity; assay: Luciferase reporter assay (FLuc/RLuc) in hypoxic Hep3B-c1 cells; format: cell-based; settings: Homo sapiens, FLuc/RLuc ratio, 1% O2, 24 hours
Description: The NCI CellMiner database contains expression data on 25,698 mRNAs in 60 human cancer cell lines that were exposed to 21,770 chemical compounds (Reinhold W C, et. al., Cancer Res. 2012; 72(14):3499-3511). The CellMiner database was interrogated for compounds that induced changes in gene expression highly correlated with those induced by acriflavine, but would be structurally unrelated to acriflavine. Compounds that satisfied these criteria were analyzed in Hep3B-c1 cells (Zhang H. et. al., Proc Natl Acad Sci USA. 2008; 105(50):19579-19586), which are stably transfected with: HIF dependent reporter plasmid p2.1, in which firefly luciferase (FLuc) coding sequences are located downstream from a hypoxia response element (HRE) and a basal SV40 promoter; and control reporter pSVR, in which Renilla luciferase (RLuc) coding sequences are downstream of the basal SV40 promoter only (FIG. 1A).
Hep3B-c1 cells (Zhang 2008), which are stably co-transfected with reporter plasmids p2.1, a hypoxia-inducible firefly luciferase reporter gene containing a hypoxia response element (HRE), and pSVR, a constitutively expressed Renilla luciferase reporter gene, were seeded on 24-well plates. Cells were treated with compounds the following day and exposed to 20% or 1% O2 for 24 hours. For transient transfection, cells were seeded, transfected with the listed plasmids and compounds, and exposed to 20% or 1% O2 for 24 hours. FLuc/RLuc ratios were determined using the Dual Luciferase Reporter Assay System (Promega) and the VICTOR Nivo plate reader (PerkinElmer).

advanced HCC = advanced HCC patients; cited from earlier work
HIF target genes = assay: RT-qPCR of HIF target gene expression in Hep3B cells; format: cell-based, human
Description: Based on hit compound 11-88, a number of analogs were prepared in which either halogen substitutions to the indole groups were altered or the central thiazole was replaced by imidazole, isoxazole, oxadiazole, oxazole, pyrazinone, pyridazine, pyrazine, pyrazole, pyridine, thiadiazole, triazine, or triazole. […] The bis-bromoindole thiazole 32-134D and the bis-indole thiadiazole 33-063 (FIGS. 1B and 1C) were further characterized with respect to endogenous HIF target gene expression in Hep3B cells. […] For comparison, we tested the effect of PT2385, which inhibited EPO, NDRG1, ANGPTL4, and VEGFA expression but had no effect on CA9, which is consistent with its HIF-2-selective mechanism of action (Wallace E M et al., Cancer Res. 2016; 76(18):5491-5500). None of the compounds had any effect on RPL13A expression, which is neither hypoxia-induced nor HIF-regulated (FIG. 3).
(§1) Human Hep3B and mouse Hepa1-6 cells were purchased from ATCC and grown in high-glucose (4.5 mg/ml) Dulbecco's modified Eagle's medium supplemented with 10% (vol/vol) fetal bovine serum and […] at 37° C. in a 5% CO2/95% air incubator (20% O2). Human cell line identity was authenticated by analysis of short tandem repeats, and all cell lines were maintained mycoplasma free, using PCR-based assays conducted at the Johns Hopkins University Genetic Resources Core Facility. Cells were subjected to hypoxia in a controlled atmosphere chamber (PLAS Labs) with ambient gas mixture containing 1% O2 and 5% CO2.
(§2) RNA was extracted using TRIzol Reagent (ThermoFisher). Quantitative Real-time PCR was conducted using SYBR Green PCR Master Mix (BioRad) and reactions were run using the BioRad thermal cycler (BioRad). The mRNA expression of target genes was normalized to the expression of 18S rRNA and the fold change (FC) was calculated based on the threshold cycle (Ct) as
FC=2^−Δ(ΔCt) where ΔCt=Cttarget gene−Ct18S rRNA and Δ(ΔCt)=ΔCttreatment−ΔCtcontrol.

Hepa1-6 mouse HCC cells = assay: RT-qPCR of hypoxia-induced mRNAs in Hepa1-6 cells; format: cell-based; settings: hypoxic Hepa1-6 cells
Description: Effects of 32-134D on Hepa1-6 mouse HCC cells and tumors. […] Thus, 32-134D inhibits the ability of hypoxic HCC cells to increase O2 delivery by stimulating angiogenesis (Angpt14, Pgf, Vegfa) or […] anaerobic metabolism by increasing glycolytic flux (Glut1, Pgk1, Ldha).
as §1
as §2, with “(Ct) as […]” for “(Ct) as”

Row | IC50 [1] [nM] | Structure (SMILES) | also measured
1 | 2370 | c1ccc2c(-c3ccnc(-c4c[nH]c5ccccc45)n3)c[nH]c2c1 [Compound 35-020] | 
2 | 3080 | Clc1ccc2c(-c3nc(-c4c[nH]c5cc(Br)ccc45)cs3)c[nH]c2c1 [Compound 12-147B] | 
3 | 2860 | c1ccc2c(-c3csc(-c4c[nH]c5ccccc45)n3)c[nH]c2c1 [Compound 33-057A] | 
4 | 3240 | O=c1[nH]cc(-c2c[nH]c3ccccc23)nc1-c1c[nH]c2ccccc12 [Compound 33-123] | 
5 |  | CNC(=O)c1cc(Oc2ccc(NC(=O)Nc3ccc(Cl)c(C(F)(F)F)c3)cc2)ccn1 [sorafenib] | survival benefit (advanced HCC): 2-3 months
6 | 3090 | Brc1ccc2c(-c3csc(-c4c[nH]c5ccccc45)n3)c[nH]c2c1 [Compound 12-58] | 
7 | 2600 | Fc1cccc2c(-c3nc(-c4c[nH]c5cc(Br)ccc45)cs3)c[nH]c12 [Compound 12-143] | 
8 | 2900 | Brc1ccc2c(-c3nc(-c4c[nH]c5ccc(Br)cc45)cs3)c[nH]c2c1 [Compound 11-88] | 
9 |  | CS(=O)(=O)c1ccc(Oc2cc(F)cc(C#N)c2)c2c1[C@H](O)C(F)(F)C2 [PT2385, reference compound] | CA9 expression (HIF target genes): no effect; EPO, NDRG1, ANGPTL4 and VEGFA expression (HIF target genes): inhibited; expression of Pgk1 mRNA (Hepa1-6 mouse HCC cells): no effect; Angpt14, Pgf, and Vegfa mRNA expression (Hepa1-6 mouse HCC cells; compared with 33-063 and 32-134D): less potent inhibitor
10 | 2200 | c1ccc2c(-c3nsc(-c4c[nH]c5ccccc45)n3)c[nH]c2c1 [Compound 33-063, 3,5-di(1H-indol-3-yl)-1,2,4-thiadiazole] | hypoxia-induced expression of HIF target genes CA9, ANGPTL4, VEGFA, NDRG1 and EPO (HIF target genes): inhibited; hypoxia-induced expression of mRNA encoding Angpt14, Pgf, Vegfa and Pgk1 (Hepa1-6 mouse HCC cells): significant dose-dependent inhibition
11 | 2480 | c1ccc2c(-c3nc(-c4cnc5ncccn45)cs3)c[nH]c2c1 [Compound 12-93F] | 
12 | 2510 | c1ccc2c(-c3nnc(-c4c[nH]c5ccccc45)o3)c[nH]c2c1 [Compound 33-087] | 
13 | 2800 | Brc1ccc2c(-c3nnc(-c4c[nH]c5cc(Br)ccc45)o3)c[nH]c2c1 [Compound 33-103C] | 
14 | 2300 | Brc1ccc2c(-c3csc(-c4c[nH]c5cc(Br)ccc45)n3)c[nH]c2c1 [Compound 32-134C] | 
15 | 2070 | c1ccc2c(-c3cc(-c4c[nH]c5ccccc45)[nH]n3)c[nH]c2c1 [Compound 35-092] | 
16 | 1940 | c1ccc2c(-c3cc(-c4c[nH]c5ccccc45)on3)c[nH]c2c1 [Compound 35-140] | 
17 | 2520 | Fc1ccc2c(-c3nc(-c4c[nH]c5cc(Br)ccc45)cs3)c[nH]c2c1 [Compound 12-147A] | 
18 | 2690 | Brc1ccc2c(-c3nc(-c4c[nH]c5c(Br)cccc45)cs3)c[nH]c2c1 [Compound 13-03] | 
19 | 2400 | O=c1[nH]c2ccc(-c3csc(-c4c[nH]c5ccccc45)n3)cc2o1 [Compound 12-93A] | 
20 | 2700 | Brc1ccc2[nH]cc(-c3nnc(-c4c[nH]c5ccccc45)o3)c2c1 [Compound 33-093B] | 
21 | 1270 | c1ccc2c(-c3cncc(-c4c[nH]c5ccccc45)n3)c[nH]c2c1 [Compound 34-110] | 
22 | 2920 | Brc1ccc2[nH]cc(-c3csc(-c4c[nH]c5ccccc45)n3)c2c1 [Compound 11-147B] | 
23 | 2870 | Brc1ccc2[nH]cc(-c3nnc(-c4c[nH]c5ccc(Br)cc45)o3)c2c1 [Compound 33-103B] | 
24 | 2040 | Clc1ncc(-c2c[nH]c3ccccc23)nc1-c1c[nH]c2ccccc12 [Compound 34-146] | 
25 | 2310 | Brc1ccc2c(-c3nc(-c4cnc5ncccn45)cs3)c[nH]c2c1 [Compound 12-70C] | 
26 | 2070 | Brc1cccc2c(-c3csc(-c4c[nH]c5c(Br)cccc45)n3)c[nH]c12 [Compound 13-01] | 
27 | 1830 | c1cc(-c2c[nH]c3ccccc23)nc(-c2c[nH]c3ccccc23)c1 [Compound 34-090] | 

Source: US20250115595A1, “INHIBITORS OF HYPOXIA-INDUCIBLE FACTORS” (The Johns Hopkins University, priority 2021, published 2025)
